This note sets out measurements from patent US11542282B2, “Low affinity poly(AD-ribose) polymerase 1 dependent cytotoxic agents” (THE TRUSTEES OF THE UNIVERSITY OF PENNSYLVANIA, priority 2018, dated 2023).

Structures are written as SMILES.

One assay relates to OVCAR8 cells. The experiment in a line: Cell viability / cytotoxicity assay in OVCAR8 cells (CellTiter Glo). The assay is classed as cell-based. As to conditions: Homo sapiens, OVCAR-8, Table 4. As to the method: (§1) Cells were cultured using standard techniques at 37° C. with 5% CO2 and 15% 02. […] Genetically engineered PARP-1 and PARP-2 double knockout mouse embryonic fibroblast (MEF) were used for cell viability studies with wildtype control. All cells were cultured in RPMI 1640 with 10% FBS and 1% penicillin/streptomycin.
(§2) Cell viability assays were carried out using four cell lines including OVCAR8, MEF wt, MEF PARP-1 (−/−) KO, and MEF PARP-2 (−/−) KO as described in Makvandi cited above. Briefly, cells were seeded in black wall clear bottom 96-well plates at concentrations of 1,000 cells/well. After 24 h, cells were then treated with concentrations from 100-0.016 μM. Cells were incubated with compounds for 4-7 days and then assayed for cell viability using the luminescent based assay, CellTiter Glo (Promega, Waltham Mass.). Plates were read on an Enspire multimode plate reader (Perkin Elmer). Data was normalized to percent survival at each concentration evaluated by diving the luminescent signal in treated wells vs. the average of vehicle controls. Experiments were repeated three times and all compounds were assayed during each experiment.
Cytotoxicity was then examined in OVCAR8 cells at 1, 10 and 100 μm concentrations as described above. See, FIGS. 1A-1C.
EC50 values of compounds 18-103 were obtained using OVCAR8 cells. See, Table 4.
For orientation: ATP-based viability assays read luminescence as a measure of living cells.

The next assay has as its target PARP-1 (Homo sapiens, UniProt P09874). In words: PARP-1 radioligand binding in live OVCAR8 cells ([125I]KX1 competition). As to conditions: for IC50: radioligand binding in OVCAR8 cells. As to the method: as §1
The affinity of each compound for the PARP-1 enzyme was evaluated using a radioligand binding method described in Makvandi, A radiotracer strategy to quantify PARP-1 expression in vivo provides a biomarker that can enable patient selection for PARP inhibitor therapy. Cancer Research 2016. Briefly, OVCAR8 ovarian cancer cells were seeded in 96-well Stripwell plates at a density of 40,000 cells/well 24 hrs prior to the study. On the day of study, compounds were diluted in RPMI to concentrations of 100 μM-0.064 nM. […] Reactions were allowed to equilibrate for 1 hr and were then washed with 200 μL of PBS. Wells were separated and counted on an automatic Wizard gamma counter (Perkin Elmer, Waltham Mass.). […] Experiments were repeated three times with adjusting dose concentrations to increase accuracy of IC50 values.
Compounds 10-17 were evaluated for PARP-1 inhibition using a radioligand binding assay protocol with BRCA1 methylated ovarian cancer cells (OVCAR8) as described above. See, Table 3. […] Compared to 1a, oxaazaspiro analogue 1b performed slightly better with scaffold 10b displaying a PARP-1 binding value of 24.9 nM.

Assay [1] concerns MEF PARP-1 (-/-) KO cells. The experiment in a line: Cell viability assay in MEF PARP-1 KO-/- cells. The following applies: Mus musculus, NA = Not applicable, no cell death observed. The assay is classed as cell-based. The method, then: (§3) Genetically engineered PARP-1 and PARP-2 double knockout mouse embryonic fibroblast (MEF) were used for cell viability studies with wildtype control.
as §2, with “After 24 h, cells were then treated with concentrations from 100-0.016 μM. Cells were incubated with compounds for 4-7 days and then assayed for cell viability using the luminescent based assay, CellTiter Glo (Promega, Waltham Mass.).” left out
(§4) This isogenic model was selected due to the highly conserved nature of the PARP catalytic domain, all-owing investigation in enzyme specificity.
Enzyme dependency of selected compounds in MEF PARP-1 KO−/− cells (FIG. 2B) was performed as described above in order to identify if these analogues act through other cellular targets.

The test system of assay [2] is MEF PARP-2 (-/-) KO cells. In words: Cell viability assay in MEF PARP-2 KO-/- cells. As to conditions: Mus musculus, NA = Not applicable, no cell death observed. The class given is cell-based, mouse. As to the method:
as §3
as §2, with “After 24 h, cells were then treated with concentrations from 100-0.016 μM. Cells were incubated with compounds for 4-7 days and then assayed for cell viability using the luminescent based assay, CellTiter Glo (Promega, Waltham Mass.).” left out
as §4
The cell cytotoxicity profile of these selected compounds in MEF PARP-2 KO−/− cell lines was then analyzed as described above.

The test system of the next assay is MEF WT cells. The experiment in a line: Cell viability assay in MEF WT cells. The assay is classed as cell-based, mouse. As to conditions: NA = Not applicable, no cell death observed. As to the method: as §3
as §2, with “After 24 h, cells were then treated with concentrations from 100-0.016 μM. Cells were incubated with compounds for 4-7 days and then assayed for cell viability using the luminescent based assay, CellTiter Glo (Promega, Waltham Mass.).” left out
as §4

PARP-1, sequence (P09874 whole entry): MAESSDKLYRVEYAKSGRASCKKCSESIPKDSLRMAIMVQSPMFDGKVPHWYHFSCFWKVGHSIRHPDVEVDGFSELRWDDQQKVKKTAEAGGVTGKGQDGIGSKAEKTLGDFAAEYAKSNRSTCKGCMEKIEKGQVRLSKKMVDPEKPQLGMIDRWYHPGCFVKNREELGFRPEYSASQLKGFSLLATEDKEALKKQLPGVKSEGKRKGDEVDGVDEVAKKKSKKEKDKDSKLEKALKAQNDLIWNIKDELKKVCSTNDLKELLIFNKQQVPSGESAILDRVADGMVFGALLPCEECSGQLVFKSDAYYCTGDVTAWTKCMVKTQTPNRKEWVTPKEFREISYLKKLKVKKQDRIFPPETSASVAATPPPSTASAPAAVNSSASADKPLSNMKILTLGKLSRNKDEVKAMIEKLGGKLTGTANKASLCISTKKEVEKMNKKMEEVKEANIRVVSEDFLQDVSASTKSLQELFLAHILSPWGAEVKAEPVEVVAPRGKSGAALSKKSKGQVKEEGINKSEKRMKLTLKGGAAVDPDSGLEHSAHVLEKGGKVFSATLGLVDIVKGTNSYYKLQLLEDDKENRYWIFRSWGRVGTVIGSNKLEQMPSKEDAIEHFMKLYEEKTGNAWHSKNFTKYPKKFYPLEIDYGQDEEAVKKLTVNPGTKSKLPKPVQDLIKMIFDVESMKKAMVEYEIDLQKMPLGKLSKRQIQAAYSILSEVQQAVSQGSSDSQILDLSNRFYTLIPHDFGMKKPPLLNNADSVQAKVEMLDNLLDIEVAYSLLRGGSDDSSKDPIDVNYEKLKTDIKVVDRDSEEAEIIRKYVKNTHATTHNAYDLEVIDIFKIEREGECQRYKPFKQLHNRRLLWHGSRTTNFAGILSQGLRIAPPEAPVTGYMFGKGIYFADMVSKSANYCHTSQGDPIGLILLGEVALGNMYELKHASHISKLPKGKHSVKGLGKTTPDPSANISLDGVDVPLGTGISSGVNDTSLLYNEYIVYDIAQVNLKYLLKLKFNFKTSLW

As a reminder, the EC50 is the concentration needed to bring the measured effect to its halfway point. A higher EC50 goes with a less potent agent. As to `O=C(c1ccc(F)cc1)N1CC2(C1)CN(C(=O)c1cc(Cc3n[nH]c(=O)c4ccccc34)ccc1F)C2` [46 (X = F)], the EC50 in the assay on OVCAR8 cells stood at 36 µM; at PARP-1, 0.0218 µM.
Turning to `O=C(c1cc(Cc2n[nH]c(=O)c3ccccc23)ccc1F)N1CC2(CCCCC2)C1` [Compound 12a, 4-(4-Fluoro-3-(2-azaspiro[3.5]nonane-2-carbonyl)benzyl)phthalazin-1(2H)-one], the EC50 in assay [1] amounted to 48.3 µM; in assay [2], 39.9 µM; with MEF WT cells (Mus musculus) it was 25.6 µM; at PARP-1, 0.0654 ± 0.0015 µM.
The IC50 is the concentration that inhibits the measured activity by half. Higher therefore signals weaker potency in that assay. As for `CC(C)(C)OC(=O)N1CCC2(CC1)CN(C(=O)c1cc(Cc3n[nH]c(=O)c4ccccc34)ccc1F)C2` [Compound 12b, Tert-butyl 2-(2-fluoro-5-((4-oxo-3,4-dihydrophthalazin-1-yl)methyl)benzoyl)-2,7-diazaspiro[3.5]nonane-7-carboxylate], the EC50 in assay [1] was 49.2 µM; in assay [2] it was 41.5 µM; with MEF WT cells (Mus musculus) it was around 23 µM; in the assay with MEF WT cells it was 23.4 µM; on PARP-1 it was 3.12 µM. For the same compound, the IC50 on PARP-1 was determined as 3.12 µM.
For the compound `O=C(c1cc(Cc2n[nH]c(=O)c3ccccc23)ccc1F)N1CCC2(CCC2)C1` [Compound 14a, 4-(4-Fluoro-3-(6-azaspiro[3.4]octane-6-carbonyl)benzyl)phthalazin-1(2H)-one], the results for the EC50 (in assay [2]; in the assay with MEF WT cells (Mus musculus); on PARP-1) were 54.7 µM, 45.2 µM and 0.0324 ± 0.0011 µM, respectively.
For `CC(C)(C)OC(=O)N1CC2(CCN(C(=O)c3cc(Cc4n[nH]c(=O)c5ccccc45)ccc3F)C2)C1` [Compound 14b], the EC50 is 31.8 µM in assay [2], 29.2 µM with MEF WT cells (Mus musculus) and 1.19 µM on PARP-1.
As for `O=C(c1cc(Cc2n[nH]c(=O)c3ccccc23)ccc1F)N1CCC2(CCCC2)C1` [Compound 15a, 4-(4-Fluoro-3-(2-azaspiro[4.4]nonane-2-carbonyl)benzyl)phthalazin-1(2H)-one], the EC50 in assay [2] was determined as 55.5 µM; with MEF WT cells (Mus musculus) it was 31.7 µM; at PARP-1 it was 0.0514 ± 0.0011 µM.
Take `CC(C)(C)OC(=O)N1CCC2(CCN(C(=O)c3cc(Cc4n[nH]c(=O)c5ccccc45)ccc3F)C2)C1` (stereo not drawn) [Compound 15b, Tert-butyl 7-(2-fluoro-5-((4-oxo-3,4-dihydrophthalazin-1-yl)methyl)benzoyl)-2,7-diazaspiro[4.4]nonane-2-carboxylate]: the EC50 in assay [1] is 46.4 µM; in assay [2] it was 23.4 µM; with MEF WT cells (Mus musculus), 17.2 µM; at PARP-1 it was 4.4 µM. For the same compound, the “fold lower PARP-1 affinity compared to the methylene congener” value at PARP-1 (10c vs 10a, 15b vs 15a) is listed as around 85 fold. This compound also showed an IC50 on PARP-1 of 4.4 µM.
Consider `O=C(c1cc(Cc2n[nH]c(=O)c3ccccc23)ccc1F)N1CCC2(CCCCC2)C1` [Compound 16a, 4-(4-Fluoro-3-(2-azaspiro[4.5]decane-2-carbonyl)benzyl)phthalazin-1(2H)-one], for which the EC50 turned out to be 51.6 µM in assay [1], 46.8 µM in assay [2], 42.7 µM in the assay with MEF WT cells (Mus musculus) and 0.1414 ± 0.0013 µM on PARP-1.
`CC(C)(C)OC(=O)N1CCC2(CC1)CCN(C(=O)c1cc(Cc3n[nH]c(=O)c4ccccc34)ccc1F)C2` [Compound 16b, Tert-butyl 2-(2-fluoro-5-((4-oxo-3,4-dihydrophthalazin-1-yl)methyl)benzoyl)-2,8-diazaspiro[4.5]decane-8-carboxylate]: the EC50 is 45.9 µM in assay [1], 31.6 µM in assay [2], 9.4 µM with MEF WT cells (Mus musculus) and 1.1 µM at PARP-1.
Take `O=C(c1cc(Cc2n[nH]c(=O)c3ccccc23)ccc1F)N1CCC2(CCN(C(=O)C3CC3)CC2)C1` [Compound 16d, 4-(3-(8-(Cyclopropanecarbonyl)-2,8-diazaspiro[4.5]decane-2-carbonyl)-4-fluorobenzyl)phthalazin-1(2H)-one]: the EC50 is 61 µM in assay [2], 41.6 µM in the assay on MEF WT cells (Mus musculus) and 0.225 µM on PARP-1.
Consider `O=C(c1cc(Cc2n[nH]c(=O)c3ccccc23)ccc1F)N1CCC2(CCCCC2)CC1` [Compound 17a, 4-(4-Fluoro-3-(3-azaspiro[5.5]undecane-3-carbonyl)benzyl)phthalazin-1(2H)-one], for which the EC50 in assay [2] is 41.3 µM; in the assay on MEF WT cells (Mus musculus), 41.3 µM; at PARP-1 it was 0.0571 ± 0.0012 µM.
For `CO[C@H]1C[C@@H](NC(=O)c2cc(Cc3n[nH]c(=O)c4ccccc34)ccc2F)C1` [Compound 19], the half-maximal effective concentration (EC50) in the assay with OVCAR8 cells is 17.1 ± 1.2 µM; at PARP-1 it was 0.0208 ± 0.0011 µM.
`CO[C@H]1C[C@H](NC(=O)c2cc(Cc3n[nH]c(=O)c4ccccc34)ccc2F)C1` [Compound 20] showed an EC50 in the assay with OVCAR8 cells of 72.2 µM.
Consider `COC1CCC(NC(=O)c2cc(Cc3n[nH]c(=O)c4ccccc34)ccc2F)C1` (stereo not drawn) [Compound 21], for which the EC50 stood at 17 ± 1.2 µM with OVCAR8 cells and 0.0496 ± 0.0011 µM at PARP-1.
The corresponding values for `COC1CCC(NC(=O)c2cc(Cc3n[nH]c(=O)c4ccccc34)ccc2F)CC1` (stereo not drawn) [Compound 22] are 16.2 ± 1.2 µM and 0.2263 ± 0.0011 µM.
For `COC1CN(C(=O)c2cc(Cc3n[nH]c(=O)c4ccccc34)ccc2F)C1` [Compound 23], the figures for the EC50 in the assay with OVCAR8 cells and on PARP-1 were 71.5 ± 1.2 µM and 0.00827 ± 0.0011 µM, respectively.
For `COC1CCN(C(=O)c2cc(Cc3n[nH]c(=O)c4ccccc34)ccc2F)C1` (stereo not drawn) [Compound 24], the figures for the EC50 in the assay on OVCAR8 cells and on PARP-1 were 37.3 ± 1.2 µM and 0.00421 ± 0.0011 µM, respectively.
The corresponding values for `COC1CCCN(C(=O)c2cc(Cc3n[nH]c(=O)c4ccccc34)ccc2F)CC1` (stereo not drawn) [Compound 25] are 20.2 ± 1.3 µM and 0.00474 ± 0.0011 µM.
`O=C(c1cc(Cc2n[nH]c(=O)c3ccccc23)ccc1F)N1CC(OCCF)C1` [Compound 26, 4-(4-fluoro-3-(3-(2-fluoroethoxy)azetidine-1-carbonyl)benzyl)phthalazin-1(2H)-one]: the EC50 is 74.1 ± 1.3 µM with OVCAR8 cells and 0.00754 ± 0.0011 µM at PARP-1.
The corresponding values for `O=C(c1cc(Cc2n[nH]c(=O)c3ccccc23)ccc1F)N1CC[C@@H](OCCF)C1` [Compound 28, (R)-4-(4-fluoro-3-(3-(2-fluoroethoxy)pyrrolidine-1-carbonyl)benzyl)phthalazin-1(2H)-one] are 30.9 ± 1.2 µM and 0.0101 ± 0.0011 µM.
As for `O=C(c1cc(Cc2n[nH]c(=O)c3ccccc23)ccc1F)N1CC[C@H](OCCF)C1` [Compound 29, (S)-4-(4-fluoro-3-(3-(2-fluoroethoxy)pyrrolidine-1-carbonyl)benzyl)phthalazin-1(2H)-one], the EC50 in the assay on OVCAR8 cells was 56.6 µM; at PARP-1 it was 0.00688 µM.
Regarding `O=C(c1cc(Cc2n[nH]c(=O)c3ccccc23)ccc1F)N1CCC(OCCF)CC1` [Compound 31, 4-(4-fluoro-3-(4-(2-fluoroethoxy)piperidine-1-carbonyl)benzyl)phthalazin-1(2H)-one], the EC50 worked out at 17.1 ± 1.2 µM with OVCAR8 cells and 0.00395 ± 0.0012 µM on PARP-1.
Turning to `O=C(c1cc(Cc2n[nH]c(=O)c3ccccc23)ccc1F)N1CCCC(OCCF)CC1` (stereo not drawn) [Compound 33, 4-(4-fluoro-3-(4-(2-fluoroethoxy)azepane-1-carbonyl)benzyl)phthalazin-1(2H)-one], the concentration for a half-maximal effect (EC50) was 11.3 ± 1.3 µM with OVCAR8 cells and 0.00562 ± 0.0011 µM on PARP-1.
As for `O=C(c1cc(Cc2n[nH]c(=O)c3ccccc23)ccc1F)N1CC2(C1)CN(c1ccc(F)cc1)C2` [Compound 40, 4-(4-fluoro-3-(6-(4-fluorophenyl)-2,6-diazaspiro[3.3]heptane-2-carbonyl)benzyl)phthalazin-1(2H)-one], the EC50 is 12 µM in the assay on OVCAR8 cells and 0.000376 µM at PARP-1.
